Results published in ChEMBL document CHEMBL1201862, “PubChem BioAssay data set” (2004).
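Values below derive from 48-hour exposures of cells grown in 96-well plates, with endpoints linearly interpolated between the two concentrations bracketing the appropriate inhibition level. GI50 = concentration required for 50% inhibition of growth.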 The source made the active and inactive calls. No stated cut-off is given here; in the data, active = GI50 up to about 1.1 µM and inactive = higher.

How the values were obtained:
Test in all cases: growth of human tumour cells (NCI), 48 h
HT-29 = tested on: HT-29
HCC 2998 = tested on: HCC 2998
NCI/ADR-RES = tested on: NCI/ADR-RES
RXF 393 = tested on: RXF 393
Hs-578T = tested on: Hs-578T
SK-MEL-2 = tested on: SK-MEL-2
CCRF-CEM = tested on: CCRF-CEM
SF-295 = tested on: SF-295
A498 = tested on: A498
MDA-MB-231 = tested on: MDA-MB-231
UACC-257 = tested on: UACC-257
PC-3 = tested on: PC-3
SF-268 = tested on: SF-268
HCT-116 = tested on: HCT-116
SF-539 = tested on: SF-539
NCI-H23 = tested on: NCI-H23
ACHN = tested on: ACHN
HOP-62 = tested on: HOP-62
NCI-H226 = tested on: NCI-H226
HCT-15 = tested on: HCT-15
LOX IMVI = tested on: LOX IMVI
M14 = tested on: M14
MOLT-4 = tested on: MOLT-4
TK-10 = tested on: TK-10
IGROV-1 = tested on: IGROV-1
786-0 = tested on: 786-0
A549 = tested on: A549
RPMI-8226 = tested on: RPMI-8226
SN12C = tested on: SN12C
SK-MEL-5 = tested on: SK-MEL-5
OVCAR-5 = tested on: OVCAR-5
U-251 = tested on: U-251
SNB-75 = tested on: SNB-75
NCI-H522 = tested on: NCI-H522
EKVX = tested on: EKVX
SR = tested on: SR
SNB-19 = tested on: SNB-19
SW-620 = tested on: SW-620
OVCAR-3 = tested on: OVCAR-3
OVCAR-4 = tested on: OVCAR-4
KM12 = tested on: KM12
MDA-MB-435 = tested on: MDA-MB-435
UACC-62 = tested on: UACC-62
SK-OV-3 = tested on: SK-OV-3
T47D = tested on: T47D
HOP-92 = tested on: HOP-92
COLO 205 = tested on: COLO 205
BT-549 = tested on: BT-549
HL-60 = tested on: HL-60
MCF7 = tested on: MCF7
DU-145 = tested on: DU-145
CAKI-1 = tested on: CAKI-1
NCI-H460 = tested on: NCI-H460
K562 = tested on: K562
MDA-N = tested on: MDA-N
OVCAR-8 = tested on: OVCAR-8
Malme-3M = tested on: Malme-3M
UO-31 = tested on: UO-31
SK-MEL-28 = tested on: SK-MEL-28

## COC(=O)C12CCC(C)(C)CC1C1=CCC3C4(C)CC(O)C(O)C(C)(C(=O)OC)C4CCC3(C)C1(CO)CC2 (configuration not stated)
HT-29
  GI50: 13.6 µM (inactive)
HCC 2998
  GI50: 13.9 µM (inactive)
NCI/ADR-RES
  GI50: 12.9 µM (inactive)
RXF 393
  GI50: 6.68 µM (inactive)
Hs-578T
  GI50: 12.6 µM (inactive)
SK-MEL-2
  GI50: 14 µM (inactive)
CCRF-CEM
  GI50: 14.3 µM (inactive)
SF-295
  GI50: 14.7 µM (inactive)
A498
  GI50: 18.7 µM (inactive)
MDA-MB-231
  GI50: 17.4 µM (inactive)
UACC-257
  GI50: 17.2 µM (inactive)
PC-3
  GI50: 10.3 µM (inactive)
SF-268
  GI50: 18.5 µM (inactive)
HCT-116
  GI50: 13.7 µM (inactive)
SF-539
  GI50: 15.7 µM (inactive)
NCI-H23
  GI50: 15.5 µM (inactive)
ACHN
  GI50: 13.9 µM (inactive)
HOP-62
  GI50: 17.9 µM (inactive)
NCI-H226
  GI50: 16.9 µM (inactive)
HCT-15
  GI50: 14.5 µM
LOX IMVI
  GI50: 14 µM (inactive)
M14
  GI50: 6.75 µM (inactive)
MOLT-4
  GI50: 8.13 µM (inactive)
TK-10
  GI50: 19 µM (inactive)
IGROV-1
  GI50: 17.8 µM (inactive)
786-0
  GI50: 10.2 µM (inactive)
A549
  GI50: 13.4 µM (inactive)
RPMI-8226
  GI50: 12.1 µM (inactive)
SN12C
  GI50: 18.3 µM (inactive)
SK-MEL-5
  GI50: 16 µM (inactive)
OVCAR-5
  GI50: 17.9 µM (inactive)
U-251
  GI50: 18.5 µM (inactive)
SNB-75
  GI50: 11.9 µM (inactive)
NCI-H522
  GI50: 14.9 µM (inactive)
EKVX
  GI50: 18.9 µM (inactive)
SR
  GI50: 3.42 µM (inactive)
SNB-19
  GI50: 16.6 µM (inactive)
SW-620
  GI50: 11.4 µM (inactive)
OVCAR-3
  GI50: 16.7 µM (inactive)
OVCAR-4
  GI50: 13.5 µM (inactive)
KM12
  GI50: 9.38 µM (inactive)
MDA-MB-435
  GI50: 15.1 µM (inactive)
UACC-62
  GI50: 14.3 µM (inactive)
SK-OV-3
  GI50: 16.9 µM (inactive)
T47D
  GI50: 10.7 µM (inactive)
HOP-92
  GI50: 14.2 µM (inactive)
COLO 205
  GI50: 15.3 µM (inactive)
BT-549
  GI50: 14.6 µM (inactive)
HL-60
  GI50: 7.52 µM (inactive)
MCF7
  GI50: 14.1 µM (inactive)
DU-145
  GI50: 15.5 µM (inactive)
CAKI-1
  GI50: 14 µM (inactive)
NCI-H460
  GI50: 15.7 µM (inactive)
K562
  GI50: 15.6 µM (inactive)
MDA-N
  GI50: 13.3 µM (inactive)
OVCAR-8
  GI50: 13.6 µM (inactive)

## COC(=O)C1=NN2c3ccccc3C(=O)OCCC2(C)C1 (configuration not stated)
HT-29
  GI50: > 100 µM (inactive)
HCC 2998
  GI50: > 100 µM (inactive)
NCI/ADR-RES
  GI50: > 100 µM (inactive)
RXF 393
  GI50: > 100 µM (inactive)
Hs-578T
  GI50: > 100 µM (inactive)
SK-MEL-2
  GI50: > 100 µM (inactive)
CCRF-CEM
  GI50: > 100 µM (inactive)
SF-295
  GI50: > 100 µM (inactive)
A498
  GI50: > 100 µM (inactive)
MDA-MB-231
  GI50: > 100 µM (inactive)
PC-3
  GI50: > 100 µM (inactive)
SF-268
  GI50: > 100 µM (inactive)
HCT-116
  GI50: > 100 µM (inactive)
SF-539
  GI50: > 100 µM (inactive)
NCI-H23
  GI50: > 100 µM (inactive)
ACHN
  GI50: > 100 µM (inactive)
HOP-62
  GI50: > 100 µM (inactive)
NCI-H226
  GI50: > 100 µM (inactive)
HCT-15
  GI50: > 100 µM
LOX IMVI
  GI50: > 100 µM (inactive)
MOLT-4
  GI50: > 100 µM (inactive)
TK-10
  GI50: > 100 µM (inactive)
IGROV-1
  GI50: > 100 µM (inactive)
786-0
  GI50: > 100 µM (inactive)
A549
  GI50: > 100 µM (inactive)
RPMI-8226
  GI50: > 100 µM (inactive)
SN12C
  GI50: > 100 µM (inactive)
SK-MEL-5
  GI50: > 100 µM (inactive)
OVCAR-5
  GI50: > 100 µM (inactive)
U-251
  GI50: > 100 µM (inactive)
SNB-75
  GI50: > 100 µM (inactive)
NCI-H522
  GI50: > 100 µM (inactive)
EKVX
  GI50: > 100 µM (inactive)
Malme-3M
  GI50: > 100 µM (inactive)
UO-31
  GI50: > 100 µM (inactive)
SR
  GI50: > 100 µM (inactive)
SW-620
  GI50: > 100 µM (inactive)
OVCAR-3
  GI50: > 100 µM (inactive)
OVCAR-4
  GI50: > 100 µM (inactive)
KM12
  GI50: > 100 µM (inactive)
MDA-MB-435
  GI50: > 100 µM (inactive)
UACC-62
  GI50: > 100 µM (inactive)
SK-OV-3
  GI50: > 100 µM (inactive)
T47D
  GI50: > 100 µM (inactive)
SK-MEL-28
  GI50: > 100 µM (inactive)
HOP-92
  GI50: > 100 µM (inactive)
COLO 205
  GI50: > 100 µM (inactive)
BT-549
  GI50: > 100 µM (inactive)
HL-60
  GI50: > 100 µM (inactive)
MCF7
  GI50: > 100 µM (inactive)
DU-145
  GI50: > 100 µM (inactive)
CAKI-1
  GI50: > 100 µM (inactive)
NCI-H460
  GI50: 68.2 µM (inactive)
K562
  GI50: > 100 µM (inactive)
MDA-N
  GI50: > 100 µM (inactive)
OVCAR-8
  GI50: > 100 µM (inactive)
